# Measured values reported in PMC5219908, “Expression, purification and kinetic characterization of recombinant benzoate dioxygenase from Rhodococcus ruber UKMP-5M” (Molecular Biology Research Communications, 2016).
# Test system: T1, benzoate dioxygenase
# T1 construct: gene benA; benA amplicon 642 bp (about 213 residues, much shorter than a usual BenA of about 450), His-tag from pET28b, E. coli BL21(DE3), ion exchange; primers encode start MELDRGPAG and end RDVPVYPF; no reductase or beta subunit added
# Test: NADH oxidation at […] nm, Lineweaver-Burk
# Type: biochemical, Rhodococcus ruber
# Details: 25 °C, 3 min; reduced nicotinamide cofactor (NADH; reagent list prints the phosphate form), FeSO4; substrate range printed as 0.1-1.2 mM, far above the Km; pH of kinetic assay not stated
structure (smiles),measurement,value
O=C(O)c1ccccc1 [sodium benzoate],Km,5.58 µM
